Measurements taken from a melting point compilation (Tetko et al.).

SMILES	melting point
CCOC(=O)Nc1ccc(C(=O)O)cc1	170 to 172 °C
Cc1n[nH]c(N)c1I	102 to 104 °C
O=C(O)c1nc(-c2cccs2)n(-c2ccccc2)n1	199 to 201 °C
Cc1c(C(=O)C(=O)O)sc2ccccc12	156 to 158 °C
COC(=O)c1sc(N)nc1C	171 to 174 °C
N#CCCN1C(=O)NC2(CCCC2)C1=O	104 to 106 °C
CC1(C2CC2)NC(=O)N(CC(=O)O)C1=O (stereo not given)	170 to 172 °C
CCCC(NC(C)=O)C(=O)O (stereo not given)	114 to 116 °C
Cc1ccc(-c2nn(-c3ccccc3)cc2C=O)cc1C	102 to 104 °C
O=Cc1cn2cccc(F)c2n1	163 to 165 °C
O=C(O)c1cccn1Cc1cccs1	134 to 136 °C
COC(=O)c1ccc2c(=O)[nH]c(CCl)nc2c1	210 to 212 °C
CC(C)(C)OC(=O)N1CCC(CC(=O)O)CC1	98 to 100 °C
O=c1cc(CCl)c2ccc(O)cc2o1	135 to 137 °C
FC(F)n1ccnc1COc1ccc(Br)cc1	61 to 63 °C
CN(C)C(=O)Cn1cnc(N)n1	135 to 137 °C
Nc1cc([N+](=O)[O-])ccc1OC(F)F	75 to 77 °C
COCCn1c(N)cc(=O)[nH]c1=O	90 to 92 °C
Cc1ccc2nc(CO)cc(=O)n2c1	171 to 173 °C
Cc1n[nH]c(C)c1S(=O)(=O)N1CCC(=O)CC1	191 to 193 °C
O=C(Nc1ccccc1)OCC(F)(F)F	62 to 65 °C
Cc1ccc2cc(CCl)c(Cl)nc2c1	132 to 134 °C
Nc1ncc(Cc2cccc(Cl)c2Cl)s1	140 to 142 °C
CCNC1=NCC(c2ccccc2)S1 (stereo not given)	99 to 101 °C
Nc1ccnn1Cc1ccccc1	82 to 84 °C

SMILES	melting point
COC(=O)CN1CCC(C(N)=O)CC1	126 to 128 °C
NC(=S)Cc1ccc(F)cc1	109 to 111 °C
Cc1cccc(NC(=O)N2CCNCC2)c1	109 to 111 °C
O=S(=O)(c1cccc(Br)c1)N1CCNCC1	97 to 101 °C
CC1(C2CCCCC2)NC(=O)NC1=O (stereo not given)	113 to 115 °C
N#Cc1c(N)sc2c1CCCCCC2	104 to 106 °C
CC(=CC(=O)O)c1cccc(Cl)c1	156 to 158 °C
Nc1ccc(Cl)c(S(=O)(=O)Nc2cccc(Cl)c2)c1	158 to 160 °C
O=C(O)CCNC(=O)N1CCc2ccccc2C1	144 to 146 °C
O=C(O)c1ccc(-c2ccc(Cl)cc2)cc1F	251 to 253 °C
O=C(O)C1CCCN1C(=O)c1ccco1 (stereo not given)	185 to 187 °C
Nc1cc(-c2ccncc2)n[nH]1	194 to 196 °C
Cc1cc(Br)cc2cc(C(=O)O)oc12	222 to 224 °C
Cc1c(N)cccc1NC(=O)c1ccccc1I	198 to 200 °C
NCCCN1CCN(c2ncccn2)CC1	72 to 74 °C
COCC(C)NC(N)=O (stereo not given)	73 to 75 °C
Cc1ccc2c(C(=O)CC#N)c[nH]c2c1	268 to 270 °C
Cc1nc(Cl)c2c3c(sc2n1)CCC3	91 to 93 °C
Cc1nc2c(cnn2C)c(=O)[nH]1	274 to 276 °C
CCC(=O)c1cc(F)cc(Br)c1	29 to 31 °C
COc1cc(OC)c2ncc(C(=O)O)c(O)c2c1	299 to 301 °C
O=[N+]([O-])c1ccc(S(=O)(=O)Cl)c(Br)c1	70 to 72 °C
CC(C)NC(N)=O	154 to 156 °C
CS(=O)(=O)Nc1ccccc1C#N	99 to 101 °C
COc1cccc(C2CC2C(=O)O)c1 (stereo not given)	90 to 92 °C

SMILES	melting point
Cc1csc(=O)n1CCC(=O)O	108 to 110 °C
O=C(O)c1ccccc1Sc1ccc(Br)cn1	183 to 185 °C
NC(=O)CN(Cc1ccccc1)c1cccc(N)c1	169 to 171 °C
Cc1ccc(C)n1-c1cn[nH]c1	155 to 157 °C
Cc1ccc(C#N)c(N)n1	169 to 171 °C
O=C(O)c1cn(Cc2ccccc2)c2ccccc12	192 to 194 °C
CNc1ncnc2nc[nH]c12	316 to 318 °C
CN(C)Cc1ccnc(N)c1	58 to 60 °C
CCOC(=O)c1cc(Br)c(OC)c(S(=O)(=O)Cl)c1	62 to 64 °C
CC(=O)CC(=O)N1CCOCC1	68 to 70 °C
Cc1cc(Br)c(NC(=O)CCl)c(Br)c1	177 to 178 °C
NC(=O)c1c(C2CCCCC2)csc1N	164 to 166 °C
CCOc1ccc(OCCOc2ccc(C=CC(=O)O)cc2OCC)cc1	182 to 184 °C
O=S(=O)(c1cccc2c1N=S=N2)N1CCNCC1	178 to 183 °C
Nn1cnnc1-c1ccccc1	115 to 117 °C
CS(=O)(=O)Cc1c(N)cccc1F	129 to 131 °C
CCN(CC)S(=O)(=O)c1ccc(OC(C)C)c(N)c1	89 to 91 °C
CC(N)c1ccc(NC(N)=O)cc1 (stereo not given)	132 to 134 °C
CC(C)(C)Nc1ccc(C(N)=NO)nc1	139 to 141 °C
c1cn2c(n1)NCCC2	104 to 106 °C
COc1ccc(-n2cnnc2S)cn1	199 to 201 °C
Cn1c(C2CC2)nc2c1CCNC2	169 to 171 °C
NC(=O)c1ccc(CNc2cccc(F)c2)cc1	155 to 157 °C
CC(=O)Nc1cccc(NC(=O)CCl)c1	173 to 175 °C
O=C(O)c1ccnc(Oc2ccccc2)c1	241 to 243 °C
